Earlier results, collected in patent US20120142631A1, “MEDICINAL ANTIDIAPER RASH CREAM INCORPORATING A BIOPOLYMER AND A PROCESS TO MAKE IT” (APEX LABORATORIES PRIVATE LIMITED, priority 2009, published 2012).
Like-named read-outs stand apart in the source and are kept apart here.

Solubility (acetone) | Solubility (ethanol) | Structure (SMILES) | Solubility / miscibility (ethanol (95%)) | Solubility / miscibility (water) | Solubility (chloroform) | Solubility (ether)
readily soluble | readily soluble | CCCCCCCCCCCCC[N+](C)(C)Cc1ccccc1.[Cl-] [Benzalkonium chloride, benzyl-dimethyl-tridecyl-azanium chloride] | miscible | miscible |  | 
 |  | CCCCCCCCCCCCCC[N+](C)(C)C.[Br-] [Cetrimide, tetradecyltrimethylammonium bromide] | freely soluble | freely soluble | freely soluble | practically insoluble
